From patent US10961238B2, “Modulators of hedgehog (Hh) signaling pathway” (E-THERAPEUTICS PLC, priority 2016, dated 2021)

System: C3H10T1/2 cells
Assay: C3H assay: differentiation of C3H10T1/2 cells by mSHH, measurement of alkaline phosphatase
Format: cell-based, mouse
Conditions: Mus musculus, C3H 10T1/2; C3H10T1/2 cells stimulated with mSHH for 72 hours; alkaline phosphatase activity; read-out: IC50 Ranges

SMILES | IC50
O=S(=O)(C1CN(Cc2ccco2)C1)N1CCC(c2c[nH]c3ncccc23)CC1 [Compound 70, 3-[1-[1-(furan-2-ylmethyl)azetidin-3-yl]sulfonylpiper-idin-4-yl]-1H-pyrrolo[2,3-b]pyridine] | 100 to 1000 nM
O=S(=O)(C1CN(c2ccncc2)C1)N1CCC(c2c[nH]c3ncccc23)CC1 [Compound 71, 3-[1-(1-pyridin-4-ylazetidin-3-yl)-sulfonylpiper-idin-4-yl]-1H-pyrrolo[2,3-b]pyridine] | 1000 to 10000 nM
O=C(c1ccncc1)N1CC(S(=O)(=O)N2CCC(c3c[nH]c4ncccc34)CC2)C1 [Compound 72, pyridin-4-yl-[3-[4-(1H-pyrrolo[2,3-b]pyridin-3-yl)piperidin-1-yl]sulfonylaze-tidin-1-yl]methanone] | 1000 to 10000 nM
CC(C)(C)C(=O)N1CC(S(=O)(=O)N2CCC(c3c[nH]c4ncccc34)CC2)C1 [Compound 73, 2,2-dimethyl-1-[3-[4-(1H-pyrrolo[2,3-b]pyridin-3-yl)piperidin-1-yl]sulfonylaze-tidin-1-yl]propan-1-one] | 100 to 1000 nM
CC(C)(C)c1ccc(C(=O)N2CC(S(=O)(=O)N3CCC(c4c[nH]c5ncccc45)CC3)C2)cc1 [Compound 74, (4-tert-butylphenyl)-[3-[4-(1H-pyrrolo[2,3-b]pyridin-3-yl)piperidin-1-yl]sulfonylaze-tidin-1-yl]methanone] | 1000 to 10000 nM
O=C(OCc1ccccc1)N1CC(S(=O)(=O)N2CCC(c3c[nH]c4ncccc34)CC2)C1 [Compound 76, benzyl 3-[4-(1H-pyrrolo[2,3-b]pyridin-3-yl)piperidin-1-yl]sulfonylaze-tidine-1-carboxylate] | 10 to 100 nM
O=C(Oc1ccc(F)cc1)N1CC(S(=O)(=O)N2CCC(c3c[nH]c4ncccc34)CC2)C1 [Compound 77, (4-fluorophenyl) 3-[4-(1H-pyrrolo[2,3-b]pyridin-3-yl)piperidin-1-yl]sulfonylaze-tidine-1-carboxylate] | 10 to 100 nM
O=C(NCc1cocn1)N1CC(S(=O)(=O)N2CCC(c3c[nH]c4ncccc34)CC2)C1 [Compound 78, N-(1,3-oxazol-4-ylmethyl)-3-[4-(1H-pyrrolo[2,3-b]pyridin-3-yl)piperidin-1-yl]sulfonylaze-tidine-1-carboxamide] | 100 to 1000 nM
O=C(N1CC(S(=O)(=O)N2CCC(c3c[nH]c4ncccc34)CC2)C1)n1ccnc1 [Compound 79, imidazol-1-yl-[3-[4-(1H-pyrrolo[2,3-b]pyridin-3-yl)piperidin-1-yl]sulfonylaze-tidin-1-yl]methanone] | 1000 to 10000 nM
O=C(NCc1cncs1)N1CC(S(=O)(=O)N2CCC(c3c[nH]c4ncccc34)CC2)C1 [Compound 80, 3-[4-(1H-pyrrolo[2,3-b]pyridin-3-yl)piperidin-1-yl]sulfonyl-N-(1,3-thiazol-5-ylmethyl)azetidine-1-carboxamide] | 100 to 1000 nM
Cn1ccc(CNC(=O)N2CC(S(=O)(=O)N3CCC(c4c[nH]c5ncccc45)CC3)C2)n1 [Compound 81, N-[(1-Methylpyrazol-3-yl)methyl]-3-[[4-(1H-pyrrolo[2,3-b]pyridin-3-yl)-1-piperidyl]sulfonyl]azetidine-1-carboxamide] | 100 to 1000 nM
CCN(CC)C(=O)N1CC(S(=O)(=O)N2CCC(c3c[nH]c4ncccc34)CC2)C1 [Compound 82, N,N-diethyl-3-[4-(1H-pyrrolo[2,3-b]pyridin-3-yl)piperidin-1-yl]sulfonylaze-tidine-1-carboxamide] | 100 to 1000 nM
O=C(OCc1ccco1)N1CC(S(=O)(=O)N2CCC(c3c[nH]c4ncccc34)CC2)C1 [Compound 83, furan-2-ylmethyl 3-[4-(1H-pyrrolo[2,3-b]pyridin-3-yl)piperidin-1-yl]sulfonylaze-tidine-1-carboxylate] | 1000 to 10000 nM
O=C(NCc1cccs1)N1CC(S(=O)(=O)N2CCC(c3c[nH]c4ncccc34)CC2)C1 [Compound 85, 3-[4-(1H-pyrrolo[2,3-b]pyridin-3-yl)piperidin-1-yl]sulfonyl-N-(thiophen-2-ylmethyl)azetidine-1-carboxamide] | 10 to 100 nM
O=C(N1CCCCC1)N1CC(S(=O)(=O)N2CCC(c3c[nH]c4ncccc34)CC2)C1 [Compound 86, piperidin-l-yl-[3-[4-(1H-pyrrolo[2,3-b]pyridin-3-yl)piperidin-1-yl]sulfonylaze-tidin-1-yl]methanone] | 100 to 1000 nM
O=C(N1CCCC1)N1CC(S(=O)(=O)N2CCC(c3c[nH]c4ncccc34)CC2)C1 [Compound 87, pyrrolidin-1-yl-[3-[4-(1H-pyrrolo[2,3-b]pyridin-3-yl)piperidin-1-yl]sulfonylaze-tidin-1-yl]methanone] | 100 to 1000 nM
CC(C)N1CC(S(=O)(=O)N2CCC(c3c[nH]c4ncccc34)CC2)C1 [Compound 89, 3-[1-(1-propan-2-ylazetidin-3-yl)sulfonylpiper-idin-4-yl]-1H-pyrrolo[2,3-b]pyridine] | 1000 to 10000 nM
CN(C)S(=O)(=O)N1CC(S(=O)(=O)N2CCC(c3c[nH]c4ncccc34)CC2)C1 [Compound 90, N,N-dimethyl-3-[4-(1H-pyrrolo[2,3-b]pyridin-3-yl)piperidin-1-yl]sulfonylaze-tidine-1-sulfonamide] | 100 to 1000 nM
CS(=O)(=O)N1CC(S(=O)(=O)N2CCC(c3c[nH]c4ncccc34)CC2)C1 [Compound 91, 3-[1-(1-Methylsulfonylazetidin-3-yl)sulfonyl-4-piperidyl]-1H-pyrrolo[2,3-b]pyridine] | 100 to 1000 nM

SMILES | IC50
CN(C)S(=O)(=O)n1cc(C2CCN(S(=O)(=O)C3CN(C(=O)OC(C)(C)C)C3)CC2)c2cccnc21 [Compound 92, tert-butyl 3-[4-[1-(dimethylsulfamoyl)pyrrolo[2,3-b]pyridin-3-yl]piperidin-1-yl]sulfonylaze-tidine-1-carboxylate] | 1000 to 10000 nM
CC(C)(C)OC(=O)N1CC(S(=O)(=O)N2CCC(c3cn(S(C)(=O)=O)c4ncccc34)CC2)C1 [Compound 93, tert-Butyl 3-[[4-(1-methylsulfonylpyrrolo[2,3-b]pyridin-3-yl)-1-piperidyl]sulfonyl]azetidine-1-carboxylate] | 1000 to 10000 nM
Cn1cc(C2CCN(S(=O)(=O)C3CN(C(=O)OC(C)(C)C)C3)CC2)c2cccnc21 [Compound 94, tert-Butyl 3-[[4-(1-methylpyrrolo[2,3-b]pyridin-3-yl)-1-piperidyl]sulfonyl]azetidine-1-carboxylate] | 100 to 1000 nM
Cc1nn(C)c(C)c1CNC(=O)N1CC(S(=O)(=O)N2CCC(c3c[nH]c4ncccc34)CC2)C1 [Compound 95, 3-[4-(1H-pyrrolo[2,3-b]pyridin-3-yl)piperidin-1-yl]sulfonyl-N-[(1,3,5-trimethylpyrazol-4-yl)methyl]azetidine-1-carboxamide] | 100 to 1000 nM
O=C(Nc1cccnc1)N1CC(S(=O)(=O)N2CCC(c3c[nH]c4ncccc34)CC2)C1 [Compound 96, N-pyridin-3-yl-3-[4-(1H-pyrrolo[2,3-b]pyridin-3-yl)piperidin-1-yl]sulfonylaze-tidine-1-carboxamide] | 10 to 100 nM
CC(C)NC(=O)N1CC(S(=O)(=O)N2CCC(c3c[nH]c4ncccc34)CC2)C1 [Compound 98, N-propan-2-yl-3-[4-(1H-pyrrolo[2,3-b]pyridin-3-yl)piperidin-1-yl]sulfonylaze-tidine-1-carboxamide] | 100 to 1000 nM
O=C(NCc1ccco1)N1CC(S(=O)(=O)N2CCC(c3c[nH]c4ncccc34)CC2)C1 [Compound 99, N-(furan-2-ylmethyl)-3-[4-(1H-pyrrolo[2,3-b]pyridin-3-yl)piperidin-1-yl]sulfonylaze-tidine-1-carboxamide] | 100 to 1000 nM
CC(C)(C)OC(=O)N1CC(S(=O)(=O)N2CCC(c3cnc4ccccn34)CC2)C1 [Compound 100, tert-butyl 3-(4-imidazo[1,2-a]pyridin-3-ylpiperidin-1-yl)sulfonylaze-tidine-1-carboxylate] | 100 to 1000 nM
CC(C)(C)OC(=O)N1CC(S(=O)(=O)N2CCC(c3cnc4n3CCCC4)CC2)C1 [Compound 101, tert-butyl 3-[4-(5,6,7,8-tetrahydroimidazo [1,2-a]pyridin-3-yl)piperidin-1-yl]sulfonylaze-tidine-1-carboxylate] | 1000 to 10000 nM
Cn1cncc1C1CCN(S(=O)(=O)C2CN(C(=O)OC(C)(C)C)C2)CC1 [Compound 102, tert-butyl 3-[4-(3-methylimidazol-4-yl)piperidin-1-yl]sulfonylaze-tidine-1-carboxylate] | 1000 to 10000 nM
CCOC(=O)N1CCC(S(=O)(=O)N2CCC(c3ccncc3)CC2)CC1 [Compound 103, ethyl 4-(4-pyridin-4-ylpiperidin-1-yl)sulfonylpiper-idine-1-carboxylate] | 1000 to 10000 nM
O=C(NC1CCC1)N1CCC(S(=O)(=O)N2CCC(c3ccncc3)CC2)CC1 [Compound 104, N-cyclobutyl-4-(4-pyridin-4-ylpiperidin-1-yl)sulfonylpiper-idine-1-carboxamide] | 1000 to 10000 nM
CC(C)OC(=O)N1CCC(S(=O)(=O)N2CCC(c3ccncc3)CC2)CC1 [Compound 105, propan-2-yl 4-(4-pyridin-4-ylpiperidin-1-yl)sulfonylpiper-idine-1-carboxylate] | 1000 to 10000 nM
COC(=O)N1CCC(S(=O)(=O)N2CCC(c3ccncc3)CC2)CC1 [Compound 106, methyl 4-(4-pyridin-4-ylpiperidin-1-yl)sulfonylpiper-idine-1-carboxylate] | 1000 to 10000 nM
CC(C)(C)NC(=O)N1CC(S(=O)(=O)N2CCC(c3c[nH]c4ncccc34)CC2)C1 [Compound 108, N-tert-butyl-3-[4-(1H-pyrrolo[2,3-b]pyridin-3-yl)piperidin-1-yl]sulfonylaze-tidine-1-carboxamide] | 10 to 100 nM
CC(C)(C)OC(=O)N1CC(S(=O)(=O)N2CCC(c3c[nH]c4ncccc34)CC2)C1 [Compound 110, tert-butyl 3-[4-(1H-pyrrolo[2,3-b]pyridin-3-yl)piperidin-1-yl]sulfonylaze-tidine-1-carboxylate] | 10 to 100 nM
CC(C)(C)NC(=O)N1CCC(S(=O)(=O)N2CCC(c3ccncc3)CC2)CC1 [Compound 111, N-tert-butyl-4-(4-pyridin-4-ylpiperidin-1-yl)sulfonylpiper-idine-1-carboxamide] | 100 to 1000 nM
O=S(=O)(C1CCN(c2ccccc2)CC1)N1CCC(c2ccncc2)CC1 [Compound 113, 4-[1-[(1-Phenyl-4-piperidyl)sulfonyl]-4-piperidyl]pyridine] | 1000 to 10000 nM
